Cytotoxicity data for 99 molecules are collected here from ChEMBL document CHEMBL3507680, “University of Dundee, Gates Library screen for HepG2 cell viability”.

Structures are written as SMILES.

The series is described as follows: Human HepG2 cell viability assay in 384 well format. The format is toxicity, cell-based. The settings on record: HepG2 cells, read-out: Inhibition. Also noted: dose 125 nL, time 70.5 hour; concentration not given beside the values.
As to `CN(CCCc1cnn(C)c1)C(=O)C1COc2ccccc2C1` (centres undefined), the cytotoxicity at 70.5 h was -5.74%.
Turning to `O=C(c1cccnc1SCc1ccccc1)N1CCOCC1`, the cytotoxicity at 70.5 h amounted to 0.0391%.
With `CCc1cccc(NC(=O)N2CCn3cnc(COC)c3C2)c1` the figure was -14.2%; with `Cc1ccc(C)c(CC(=O)NC2CCC(N3C(=O)CCC3=O)CC2)c1` (centres undefined), -1.42%; with `Cc1cnn(C2CN(CCOc3ccc(C#N)cc3)C2)c1`, -5.99%.
Then `CC(C)CCc1noc(CN2CCCC(CNS(N)(=O)=O)C2)n1` (centres undefined), with -1.48%.
With `O=C1CC(NCc2cnc(N3CCCC3)nc2)CN1c1ccccc1` (centres undefined) the figure was 1.08%; with `Cc1ocnc1C(=O)N1CCCC1c1ccc(C(=O)N2CCSCC2)s1` (centres undefined), -7.81%.
For the molecule `Cn1cc(CN2CCC3(CCC(C(=O)NCC4CC4)C3)CC2)cn1` (centres undefined), the cytotoxicity at 70.5 h was -9.54%.
Take `CCOc1cc(-c2cc(=O)n3c(n2)CCCCC3)ccc1O`: the cytotoxicity at 70.5 h is -20.5%.
With `CCN(CC)CC[C@H]1CN(C(=O)c2ccc(F)cc2)CC[C@H]1CC(=O)O` the figure was -2.08%.
As for `O=C(NCCO)C1(Cc2cc(-c3ccc(F)cc3F)no2)CCOCC1`, the cytotoxicity at 70.5 h is -12.3%.
With `Cc1nc(C2CCN(S(C)(=O)=O)CC2)nc2c1CCC(=O)N2CC(C)C` the figure was -1.36%.
For `Cc1ccc2oc(C(=O)N3CCCC(n4ccnc4C)C3)cc2n1` (centres undefined), the cytotoxicity at 70.5 h came to 0.879%.
Turning to `N#Cc1ncn(CCC(=O)Nc2cc(Cl)ccc2Cl)n1`, the cytotoxicity at 70.5 h was -4.2%.
Then `CC1CCCN(c2ccccc2OCC(=O)NC2CC2)C1` (centres undefined), with 2.91%.
On to `CO[C@@H]1CC[C@H]2[C@H]1OCCN2S(=O)(=O)C1CC1`, for which the cytotoxicity at 70.5 h was -9.16%.
With `CC(C)n1cnc(-c2nc(C(=O)NC3CC3)c3ccccn23)c1` the figure was -15.8%; with `O=C1N(CCO)CCCC12CCN(Cc1nnc(C3CC3)o1)C2` (centres undefined), 0.803%.
Then `Cc1ccccc1NC(=O)N1CCN(Cc2noc(C3CC3)n2)CC1`, with 1.73%; and `O=C1NCCCCC1NS(=O)(=O)N1CCCCCC1` (centres undefined), with -13.8%.
With `COc1ccc(C)cc1-n1cnnc1CC1CCNCC1` the figure was -3.84%.
For `CC(=O)N1CCC(NC(=O)Cc2nc3nc(C)cc(C)n3n2)CC1`, the cytotoxicity at 70.5 h is -3.83%.
With `Cc1cc(CNC(=O)COc2ccccc2F)c(C)o1` the figure was -0.958%; with `COc1c(CNCCNC(=O)Cc2ccc(F)cc2)c(C)nn1C`, 34.8%.
Then `O=C(CCN1CCCO1)N1CCCC(CO)(CCCc2ccccc2)C1` (centres undefined), with -8.66%.
With `O=C(c1cccc(CN2CCCC2)c1)N1CCCC(n2cncn2)C1` (centres undefined) the figure was 16.1%.
Turning to `O=C1NCC[C@]12CN(CC1CCOCC1)C[C@H]2c1ccccc1`, the cytotoxicity at 70.5 h was -7.01%.
For `Cn1cc(C(=O)CC2CCCN2C(=O)c2coc3ccccc23)cn1` (centres undefined), the cytotoxicity at 70.5 h was -12.8%.
Then `NC(=O)CN1CC(c2nc(C3CC3)no2)C1`, with -7.4%.
Then `O=C(Cc1ccccn1)N1CCC2(CC1)CC(Oc1ccccn1)CO2` (centres undefined), with -9.02%.
On to `CN(CCNC(=O)c1cnc(-c2ccncc2)nc1)S(C)(=O)=O`, for which the cytotoxicity at 70.5 h was -7.17%.
In the case of `CC(C)(C)n1ncc2c(=O)[nH]c(N3CC(O)C3)nc21`, the cytotoxicity at 70.5 h stood at 0.684%.
For the molecule `CCN(CC)C(=O)CCc1nc(-c2cnn3c(C)cc(C)nc23)no1`, the cytotoxicity at 70.5 h is -121%.
Regarding `Cc1ccnc(NC(=O)CCNC(=O)c2ccccc2Cl)c1`, the cytotoxicity at 70.5 h is -1.99%.
On to `Cc1cc(NCC2CCS(=O)(=O)C2)n2nc(C)cc2n1` (centres undefined), for which the cytotoxicity at 70.5 h amounted to 12.6%.
Regarding `Cc1nn(C)c(C)c1CN(C)C(=O)c1cc(C(F)(F)F)n(C)n1`, the cytotoxicity at 70.5 h was -5.06%.
With `CCC(C)N(Cc1cccnc1)Cc1ccc2c(c1)OCCO2` (centres undefined), the cytotoxicity at 70.5 h stood at 3.73%.
Then `CCCc1n[nH]cc1C(=O)NCC1COc2cc(OC)ccc2C1` (centres undefined), with 14.2%; and `Cc1cc(NC(=O)NCC(CC(C)C)N2CCOCC2)n(C)n1` (centres undefined), with 2.74%.
Turning to `Cc1cnc(-c2nc(O)c3c(n2)CN(C(=O)C2CCCO2)CC3)cn1` (centres undefined), the cytotoxicity at 70.5 h was -1.18%.
Then `CN1[C@H](CN2CCCC2)C[C@@H]2CN(C(=O)c3ccsc3)CC[C@@H]21`, with 11.2%.
Then `CC(C)CC(C#N)NC(=O)COC1CCCCC1` (centres undefined), with -8.86%; and `CC(Cc1cccs1)NC(=O)CCn1cccn1` (centres undefined), with -0.682%; and `O=S(=O)(NCCn1cc(C2CCCNC2)nn1)c1ccc(Cl)cc1` (centres undefined), with -9.08%.
With `Cc1ccccc1C(=O)N1CCCn2nnc(Cn3cccn3)c2C1` the figure was -9.23%.
As to `Cn1cc(N2CCC(Nc3ccc4nccnc4n3)C2=O)cn1` (centres undefined), the cytotoxicity at 70.5 h is -10.5%.
With `Cc1ccc(C2(CN3CCN(Cc4cn(C)nc4C)CC3)CC2)cc1` the figure was -11.3%.
With `Cc1nn(C)c2c(N3CCN(C(=O)C4CCC4)CC3)ncnc12` the figure was -5.94%.
With `CCC1CCCCN1C(=O)c1ccc2[nH]nnc2c1` (centres undefined) the figure was -2.33%; with `Cc1nn(C)c(Cl)c1C1CCCN1c1ncnc2sccc12` (centres undefined), -1.91%; with `CNC(=O)CN1C(=O)CCC12CCCN(Cc1ccccn1)C2` (centres undefined), 2.52%.
In the case of `CCc1c(C)n(CCC#N)c2nc3ccccc3n2c1=O`, the cytotoxicity at 70.5 h was -9.18%.
Then `Cc1cccc(C(=O)N2CCCN(CCc3scnc3C)CC2)c1`, with -10.5%; and `COc1cc2cc(C)c(SCCN3CCCCC3)nc2cc1OC`, with 4.15%.
Then `CCN(CC)c1ccc(CNC(=O)N2CCC(C#N)CC2)cc1`, with -14.6%; and `O=C(NCC1CCOC1)c1ccc(-c2ccccc2)[nH]c1=O` (centres undefined), with -7.11%.
With `Cc1[nH]c2c(C)ccc(C)c2c1CC(=O)NCCNc1cccnc1` the figure was 27%.
As for `O=C(NCc1cccnc1-n1cncn1)c1ccc2c(c1)CCO2`, the cytotoxicity at 70.5 h is -1.03%.
On to `O=C1NC2(CCN(Cc3ccc(F)cc3)CC2)CC1c1ccncc1` (centres undefined), for which the cytotoxicity at 70.5 h is -8.27%.
As to `CCn1ccnc1CN1CCCN(CC2CC2)C(C(C)C)C1` (centres undefined), the cytotoxicity at 70.5 h is -5.83%.
Then `CCN(CC)S(=O)(=O)N1CC[C@H](c2ccccc2)[C@@H]2[C@H]1CCCCN2C`, with -0.108%.
With `COc1cc(NC(=O)c2cccc(N(C)C)c2)cc(OC)c1` the figure was -7.19%; with `COc1ccc(C2CC(=O)Nc3c2cnn3C2CCCC2)cc1` (centres undefined), -11.1%; with `Cc1cc(N[C@@H](CO)c2ccccc2)n2nc(C)c(C)c2n1`, -2.95%.
With `O=C(c1ncccn1)N1C[C@@H]2COC[C@]2(COc2cccnc2)C1` the figure was -4.57%; with `Cc1ccc(CN2CCOC3(COCCN(Cc4ccncc4)C3)C2)o1` (centres undefined), -13.7%.
Turning to `COCc1nnc(C(=O)N(C)Cc2ccc(OC)cc2)o1`, the cytotoxicity at 70.5 h is -0.9%.
With `O=C(C1COCCO1)N1CCN(Cc2ccc3c(c2)CCO3)CC1` (centres undefined) the figure was 1.06%; with `O=c1c2ccccc2nc2n1C(CSc1ccc(Br)cc1)CN2` (centres undefined), 0.264%.
Then `CCC(CC)c1nnc(NC(=O)N2CCCC(NC(C)=O)C2)s1` (centres undefined), with -5.89%; and `Cc1ccc(C)c(OCCN(C)C(=O)CCc2cn[nH]c2)c1`, with -12.7%.
With `CC(Cc1c(F)cccc1F)NC(=O)Nc1cnn(CC(N)=O)c1` (centres undefined) the figure was -3.56%.
Turning to `COc1cc(C(=O)NC2COc3ccccc3C2)ccc1OCC(N)=O` (centres undefined), the cytotoxicity at 70.5 h was -9.85%.
Turning to `Cc1ccsc1CN1CCCC(CNC(=O)c2ccc(N)nc2)C1` (centres undefined), the cytotoxicity at 70.5 h was -8.08%.
Then `Cc1noc(CS(=O)(=O)CC(=O)NC(C)c2ccccc2)n1` (centres undefined), with -12.5%; and `OC(CNCCc1nnc2ccccn12)c1ccc2c(c1)OCO2` (centres undefined), with -5.97%; and `CC(C)c1cc(C(=O)N2CCN(C)[C@@H]3CS(=O)(=O)C[C@@H]32)no1`, with -7.29%.
Then `O=S(=O)(c1ccc(Cl)cc1)N1C[C@@H]2CCN[C@@H]2C1`, with -6.26%.
With `COc1cccc(CCNC(=O)c2ccc(=O)n(C)c2)c1` the figure was -2.94%; with `COC(=O)c1ccccc1NS(=O)(=O)c1c(C)nn(C)c1C`, -6.21%; with `CCN(CC)Cc1ccccc1NCc1c(C)noc1C`, -0.774%.
As for `CCCC1c2cccn2CCN1S(=O)(=O)N1CCOCC1` (centres undefined), the cytotoxicity at 70.5 h is -4.73%.
For `Cc1ncccc1C(=O)Nc1cccc(Cn2ccccc2=O)c1`, the cytotoxicity at 70.5 h is -7.74%.
Consider `CCOc1ncccc1C(=O)N1CCN(C)C2(CCN(C)CC2)C1`, for which the cytotoxicity at 70.5 h is 4.53%.
With `CCCc1nccn1-c1cccc(CN2CCCC2)c1` the figure was -2.36%; with `CC(C)(C)c1coc([C@@H]2COCCN2Cc2c[nH]c3ccccc23)n1`, 1.59%; with `CC(C)[C@H]1CN(C(=O)CO)C[C@@H]1N(C)C`, -13.8%.
Take `O=C(c1cnccn1)N1CCC(CN2CCOCC2)CC1`: the cytotoxicity at 70.5 h is -7.46%.
For the molecule `COc1cccc2c1OCC(CNC(=O)Cc1c(C)nc(N)nc1C)C2` (centres undefined), the cytotoxicity at 70.5 h is -7.12%.
Then `CC(C)c1noc(CN2CCN(C(=O)c3cccc(F)c3)CC2)n1`, with -8.17%; and `Cc1occc(=O)c1OCc1noc(C(=O)NCC2CC2)n1`, with -16.6%.
With `CC(C)C(NC(=O)NCCNc1cnccn1)c1cccs1` (centres undefined) the figure was -11.6%.
With `c1cnc(-c2nc(CNC3CCc4ncnn4C3)cs2)nc1` (centres undefined), the cytotoxicity at 70.5 h was -6.68%.
Take `CS(=O)(=O)N1C[C@H]2N(c3ncccn3)CCC[C@@]2(C(=O)NCC2CC2)C1`: the cytotoxicity at 70.5 h is -7.17%.
With `CC(C)OCCC(=O)Nc1ncn(CC(=O)N2CCCCCC2)n1` the figure was -1.46%.
`CCn1nc(C)cc1C(=O)OCCNc1ncnc2ccccc12`: the cytotoxicity at 70.5 h amounted to 27.6%.
Regarding `Cc1ccc(NC2CCCN(CCc3ccccc3)C2)nn1` (centres undefined), the cytotoxicity at 70.5 h is -3.93%.
With `O=C([C@H]1C[C@@H]2CCN(c3cccc(F)c3)C[C@H]2O1)N1CCCCO1` the figure was -13.4%.
